The results in this text go back to patent US8957078B2, “Compounds useful as inhibitors of ATR kinase” (Vertex Pharmaceuticals Incorporated, priority 2013, dated 2015).

The structures appear in SMILES notation.

Assay [1] addresses T1, ATR kinase (full-length ATR) (Homo sapiens, UniProt Q13535).
T1 construct: in the presence of 5 nM full-length ATR
In words: ATR Inhibition Assay (radioactive-phosphate incorporation). The settings on record: Ki(app); 5 nM full-length ATR, 10 μM ATP, 800 μM target peptide, 25° C. In kind it is biochemical. Here is the method: Compounds were screened for their ability to inhibit ATR kinase using a radioactive-phosphate incorporation assay. Assays were carried out in a mixture of 50 mM Tris/HCl (pH 7.5), 10 mM MgCl2 and 1 mM DTT. Final substrate concentrations were 10 μM [γ-33P]ATP (3 mCi 33P ATP/mmol ATP, Perkin Elmer) and 800 μM target peptide (ASELPASQPQPFSAKKK (SEQ. ID NO: 1)).
Assays were carried out at 25° C. in the presence of 5 nM full-length ATR. An assay stock buffer solution was prepared containing all of the reagents listed above, with the exception of ATP and the test compound of interest. 13.5 μL of the stock solution was placed in a 96 well plate followed by addition of 2 μL of DMSO stock containing serial dilutions of the test compound (typically starting from a final concentration of 15 μM with 3-fold serial dilutions) in duplicate (final DMSO concentration 7%). The plate was pre-incubated for 10 minutes at 25° C. and the reaction initiated by addition of 15 μL [γ-33P]ATP (final concentration 10 μM).
The reaction was stopped after […] by the addition of 30 μL 0.1M phosphoric acid containing 2 mM ATP. A multiscreen phosphocellulose filter 96-well plate (Millipore, Cat no. MAPHN0B50) was pretreated with 100 μL 0.2M phosphoric acid prior to the addition of 45 μL of the stopped assay mixture. The plate was washed with 5×200 μL 0.2M phosphoric acid. After drying, 100 μL Optiphase ‘SuperMix’ liquid scintillation cocktail (Perkin Elmer) was added to the well prior to scintillation counting (1450 Microbeta Liquid Scintillation Counter, Wallac).
After removing mean background values for all of the data points, Ki(app) data were calculated from non-linear regression analysis of the initial rate data using the Prism software package (GraphPad Prism version 3.0cx for Macintosh, GraphPad Software, San Diego Calif., USA).

For assay [2], the system named is HCT116 colorectal cancer cells. In words: Cisplatin Sensitization Assay (96 h cell viability MTS). In kind it is cell-based. To be noted: concentration of compound required to reduce the IC50 of Cisplatin alone by at least 3-fold; HCT116, 96 h MTS. Here is the method: Compounds can be screened for their ability to sensitize HCT116 colorectal cancer cells to Cisplatin using a 96 h cell viability (MTS) assay. […] Compounds and Cisplatin are then both added simultaneously to the cell media in 2-fold serial dilutions from a top final concentration of 10 μM as a full matrix of concentrations in a final cell volume of 200 μl, and the cells are then incubated at 37° C. in 5% CO2. After 96 h, 40 μl of MTS reagent (Promega G358a) is added to each well and the cells are incubated for 1 h at 37° C. in 5% CO2. Finally, absorbance is measured at 490 nm using a SpectraMax Plus 384 reader (Molecular Devices) and the concentration of compound required to reduce the IC50 of Cisplatin alone by at least 3-fold (to 1 decimal place) can be reported.

T1 sequence (Q13535 whole entry): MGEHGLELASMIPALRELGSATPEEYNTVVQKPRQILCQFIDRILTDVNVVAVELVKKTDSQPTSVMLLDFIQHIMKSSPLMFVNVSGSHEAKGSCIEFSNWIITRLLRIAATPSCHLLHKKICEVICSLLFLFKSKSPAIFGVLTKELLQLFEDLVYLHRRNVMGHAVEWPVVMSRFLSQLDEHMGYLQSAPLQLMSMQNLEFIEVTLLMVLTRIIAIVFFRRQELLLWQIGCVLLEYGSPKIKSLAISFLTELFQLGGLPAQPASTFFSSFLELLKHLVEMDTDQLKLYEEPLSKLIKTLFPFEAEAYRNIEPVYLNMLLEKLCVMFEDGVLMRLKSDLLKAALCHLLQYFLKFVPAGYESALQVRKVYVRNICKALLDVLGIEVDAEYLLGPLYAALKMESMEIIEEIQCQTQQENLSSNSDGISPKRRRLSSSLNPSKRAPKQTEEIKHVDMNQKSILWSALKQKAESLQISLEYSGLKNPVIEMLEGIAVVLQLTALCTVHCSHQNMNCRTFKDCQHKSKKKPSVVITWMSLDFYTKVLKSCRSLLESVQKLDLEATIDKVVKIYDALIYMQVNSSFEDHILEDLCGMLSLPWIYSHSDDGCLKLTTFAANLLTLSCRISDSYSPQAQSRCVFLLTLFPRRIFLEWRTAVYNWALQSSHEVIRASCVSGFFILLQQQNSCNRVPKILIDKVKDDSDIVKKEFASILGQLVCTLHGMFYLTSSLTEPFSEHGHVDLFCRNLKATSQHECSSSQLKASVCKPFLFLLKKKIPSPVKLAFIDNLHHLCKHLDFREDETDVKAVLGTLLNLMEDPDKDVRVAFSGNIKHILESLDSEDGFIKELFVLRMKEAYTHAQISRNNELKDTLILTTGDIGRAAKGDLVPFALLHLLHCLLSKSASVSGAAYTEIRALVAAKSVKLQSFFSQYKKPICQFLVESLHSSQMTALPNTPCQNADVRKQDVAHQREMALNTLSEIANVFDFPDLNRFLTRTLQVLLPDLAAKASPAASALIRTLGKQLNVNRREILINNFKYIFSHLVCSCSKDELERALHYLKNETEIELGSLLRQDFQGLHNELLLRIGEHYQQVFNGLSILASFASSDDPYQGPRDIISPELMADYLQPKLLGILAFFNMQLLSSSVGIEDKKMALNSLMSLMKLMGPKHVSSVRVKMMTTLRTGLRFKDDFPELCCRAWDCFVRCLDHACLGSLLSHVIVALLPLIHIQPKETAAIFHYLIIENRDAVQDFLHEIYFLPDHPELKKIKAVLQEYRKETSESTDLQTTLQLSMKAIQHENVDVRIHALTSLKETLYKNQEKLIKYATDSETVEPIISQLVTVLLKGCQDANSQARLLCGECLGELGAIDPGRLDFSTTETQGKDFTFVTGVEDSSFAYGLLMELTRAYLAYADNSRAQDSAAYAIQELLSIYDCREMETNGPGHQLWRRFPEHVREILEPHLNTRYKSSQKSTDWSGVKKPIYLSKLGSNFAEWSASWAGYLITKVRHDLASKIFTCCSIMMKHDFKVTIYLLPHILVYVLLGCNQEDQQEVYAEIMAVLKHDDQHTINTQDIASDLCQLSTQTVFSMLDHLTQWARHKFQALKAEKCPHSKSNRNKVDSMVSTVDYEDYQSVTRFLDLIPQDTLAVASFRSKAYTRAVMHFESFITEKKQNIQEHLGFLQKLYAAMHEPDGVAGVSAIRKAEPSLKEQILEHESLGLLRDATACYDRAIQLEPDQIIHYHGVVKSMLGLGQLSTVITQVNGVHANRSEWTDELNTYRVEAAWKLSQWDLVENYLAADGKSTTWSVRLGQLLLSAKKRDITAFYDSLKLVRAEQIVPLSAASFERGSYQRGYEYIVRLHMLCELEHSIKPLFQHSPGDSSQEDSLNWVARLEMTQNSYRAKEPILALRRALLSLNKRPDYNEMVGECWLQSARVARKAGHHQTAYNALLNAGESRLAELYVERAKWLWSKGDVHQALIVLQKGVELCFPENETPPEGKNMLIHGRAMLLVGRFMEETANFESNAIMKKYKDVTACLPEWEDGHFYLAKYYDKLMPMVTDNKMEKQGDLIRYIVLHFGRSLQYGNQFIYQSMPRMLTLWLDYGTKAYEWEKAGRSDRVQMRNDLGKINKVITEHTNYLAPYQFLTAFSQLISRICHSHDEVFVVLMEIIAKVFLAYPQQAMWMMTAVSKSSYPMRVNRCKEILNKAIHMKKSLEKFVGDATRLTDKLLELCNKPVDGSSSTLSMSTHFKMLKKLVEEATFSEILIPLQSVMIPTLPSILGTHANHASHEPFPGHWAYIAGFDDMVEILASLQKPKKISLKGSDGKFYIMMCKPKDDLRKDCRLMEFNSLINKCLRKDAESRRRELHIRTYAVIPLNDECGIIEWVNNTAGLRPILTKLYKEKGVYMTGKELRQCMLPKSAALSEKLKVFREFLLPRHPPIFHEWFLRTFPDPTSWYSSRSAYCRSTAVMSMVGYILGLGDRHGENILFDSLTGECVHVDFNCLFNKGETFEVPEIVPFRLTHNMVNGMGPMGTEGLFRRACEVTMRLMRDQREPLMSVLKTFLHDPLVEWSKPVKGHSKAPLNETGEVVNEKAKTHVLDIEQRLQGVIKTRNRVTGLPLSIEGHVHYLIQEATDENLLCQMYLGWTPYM

As to `Nc1nn2cc(F)cnc2c1C(=O)Nc1cncnc1O[C@H]1C[C@]2(CCN2)C1` [I-A-18, N-(4-((4s,6r)-1-azaspiro[3.3]heptan-6-yloxy)pyrimidin-5-yl)-2-amino-6-fluoropyrazolo[1,5-a]pyrimidine-3-carboxamide], the Ki in assay [1] was 1000 to 5000 nM. The “Cisplatin Sensitization Assay” value in assay [2] is “+ (Compounds with a Cisplatin sensitization value >0.2 μM but <5 μM are marked with “+.”)”.
In the case of `Nc1nn2cc(F)cnc2c1C(=O)Nc1cncn1C1CCOCC1` [I-D-4, 2-amino-6-fluoro-N-(1-(tetrahydro-2H-pyran-4-yl)-1H-imidazol-5-yl)pyrazolo[1,5-a]pyrimidine-3-carboxamide], the Ki in assay [1] lay in the range of 10 to 1000 nM. For the same compound, in assay [2], the “Cisplatin Sensitization Assay” value is on record as “++ (Compounds with a Cisplatin sensitization value >0.02 μM but <0.2 μM are marked with “++.”)”.
For `Nc1nn2cc(F)cnc2c1C(=O)Nc1cnncc1N1CCC(CN2CCOCC2)CC1` [I-B-8, 2-amino-6-fluoro-N-(5-(4-(morpholinomethyl)piperidin-1-yl)pyridazin-4-yl)pyrazolo[1,5-a]pyrimidine-3-carboxamide], in that order: 10 to 1000 nM and “++ (Compounds with a Cisplatin sensitization value >0.02 μM but <0.2 μM are marked with “++.”)”.
The corresponding values for `CN1CCN(C(=O)C2CCN(c3cnncc3NC(=O)c3c(N)nn4cc(F)cnc34)CC2)CC1` [I-B-5, 2-amino-6-fluoro-N-(5-(4-(4-methylpiperazine-1-carbonyl)piperidin-1-yl)pyridazin-4-yl)pyrazolo[1,5-a]pyrimidine-3-carboxamide] are 10 to 1000 nM and “++ (Compounds with a Cisplatin sensitization value >0.02 μM but <0.2 μM are marked with “++.”)”.
For the compound `Cc1nsc(NC(=O)c2c(N)nn3cc(F)cnc23)c1-c1cccnc1` [I-E-3, 2-amino-6-fluoro-N-(3-methyl-4-(pyridin-3-yl)isothiazol-5-yl)pyrazolo[1,5-a]pyrimidine-3-carboxamide], the Ki in assay [1] was in the range of 10 to 1000 nM. Further, the “Cisplatin Sensitization Assay” value in assay [2] is “+++ (Compounds with a Cisplatin sensitization value of <0.02 μM are marked with “+++.”)”.
The corresponding values for `Nc1nn2cc(F)cnc2c1C(=O)Nc1cnncc1N1CCC(CN2CCC(F)(F)C2)CC1` [I-B-6, 2-amino-N-(5-(4-((3,3-difluoropyrrolidin-1-yl)methyl)piperidin-1-yl)pyridazin-4-yl)-6-fluoropyrazolo[1,5-a]pyrimidine-3-carboxamide] are 10 to 1000 nM and “+++ (Compounds with a Cisplatin sensitization value of <0.02 μM are marked with “+++.”)”.
The corresponding values for `COCc1c(C)nsc1NC(=O)c1c(N)nn2cc(F)cnc12` [I-E-20, 2-amino-6-fluoro-N-(4-(methoxymethyl)-3-methylisothiazol-5-yl)pyrazolo[1,5-a]pyrimidine-3-carboxamide] are 10 to 1000 nM and “+++ (Compounds with a Cisplatin sensitization value of <0.02 μM are marked with “+++.”)”.
The corresponding values for `Cc1nsc(NC(=O)c2c(N)nn3cc(F)cnc23)c1-c1cnn(C)c1` [I-E-12, 2-amino-6-fluoro-N-(3-methyl-4-(1-methyl-1H-pyrazol-4-yl)isothiazol-5-yl)pyrazolo[1,5-a]pyrimidine-3-carboxamide] are 10 to 1000 nM and “++ (Compounds with a Cisplatin sensitization value >0.02 μM but <0.2 μM are marked with “++.”)”.
As to `COc1ncncc1NC(=O)c1c(N)nn2cc(CC#N)cnc12` [I-A-17, 2-amino-6-(cyanomethyl)-N-(4-methoxypyrimidin-5-yl)pyrazolo[1,5-a]pyrimidine-3-carboxamide], the Ki in assay [1] was 10 to 1000 nM. Moreover, the “Cisplatin Sensitization Assay” value in assay [2] is “++ (Compounds with a Cisplatin sensitization value >0.02 μM but <0.2 μM are marked with “++.”)”.
For `Nc1nn2cc(F)cnc2c1C(=O)Nc1ccncc1N1CCC(C(=O)N2CCN3CCC2CC3)CC1` [I-C-7, N-(3-(4-(1,4-diazabicyclo[3.2.2]nonane-4-carbonyl)piperidin-1-yl)pyridin-4-yl)-2-amino-6-fluoropyrazolo[1,5-a]pyrimidine-3-carboxamide], in that order: 10 to 1000 nM and “+++ (Compounds with a Cisplatin sensitization value of <0.02 μM are marked with “+++.”)”.
For `Cc1cc(-c2c(C)nsc2NC(=O)c2c(N)nn3cc(F)cnc23)ccn1` [I-E-13, 2-amino-6-fluoro-N-(3-methyl-4-(2-methylpyridin-4-yl)isothiazol-5-yl)pyrazolo[1,5-a]pyrimidine-3-carboxamide], in that order: 10 to 1000 nM and “+++ (Compounds with a Cisplatin sensitization value of <0.02 μM are marked with “+++.”)”.
For `CN1CCN(C(=O)C2CCN(c3ncncc3NC(=O)c3c(N)nn4cc(F)cnc34)CC2)CC1` [I-A-19, 2-amino-6-fluoro-N-(4-(4-(4-methylpiperazine-1-carbonyl)piperidin-1-yl)pyrimidin-5-yl)pyrazolo[1,5-a]pyrimidine-3-carboxamide], in that order: 1000 to 5000 nM and “+ (Compounds with a Cisplatin sensitization value >0.2 μM but <5 μM are marked with “+.”)”.
With `CN1CCN(Cc2ccc(-c3cnncc3NC(=O)c3c(N)nn4cc(F)cnc34)cc2)CC1` [I-B-7, 2-amino-6-fluoro-N-(5-(4-((4-methylpiperazin-1-yl)methyl)phenyl)pyridazin-4-yl)pyrazolo[1,5-a]pyrimidine-3-carboxamide], in assay [1], the Ki lay in the range of 10 to 1000 nM. The “Cisplatin Sensitization Assay” value in assay [2] was “+++ (Compounds with a Cisplatin sensitization value of <0.02 μM are marked with “+++.”)”.
The corresponding values for `Cc1nsc(NC(=O)c2c(N)nn3cc(F)cnc23)c1-c1ccnn1C` [I-E-8] are 10 to 1000 nM and “+++ (Compounds with a Cisplatin sensitization value of <0.02 μM are marked with “+++.”)”.
For the compound `Nc1nn2cc(F)cnc2c1C(=O)Nc1cnncc1N1CCN(C2CCOCC2)CC1` [I-B-3, 2-amino-6-fluoro-N-(5-(4-(tetrahydro-2H-pyran-4-yl)piperazin-1-yl)pyridazin-4-yl)pyrazolo[1,5-a]pyrimidine-3-carboxamide], the Ki in assay [1] is 10 to 1000 nM. Moreover, the “Cisplatin Sensitization Assay” value in assay [2] is reported as “++ (Compounds with a Cisplatin sensitization value >0.02 μM but <0.2 μM are marked with “++.”)”.
The corresponding values for `Nc1nn2cc(Cl)cnc2c1C(=O)Nc1cncnc1OC1CCN(C2COC2)CC1` [I-A-9, 2-amino-6-chloro-N-(4-((1-(oxetan-3-yl)piperidin-4-yl)oxy)pyrimidin-5-yl)pyrazolo[1,5-a]pyrimidine-3-carboxamide] are 1000 to 5000 nM and “+ (Compounds with a Cisplatin sensitization value >0.2 μM but <5 μM are marked with “+.”)”.
The corresponding values for `Nc1nn2cc(F)cnc2c1C(=O)Nc1cnncc1N1CCOCC1` [I-B-12, 2-amino-6-fluoro-N-(5-morpholinopyridazin-4-yl)pyrazolo[1,5-a]pyrimidine-3-carboxamide] are 10 to 1000 nM and “++ (Compounds with a Cisplatin sensitization value >0.02 μM but <0.2 μM are marked with “++.”)”.
The corresponding values for `CN1CCN(CC2CCN(c3cnncc3NC(=O)c3c(N)nn4cc(F)cnc34)CC2)CC1` [I-B-11, 2-amino-6-fluoro-N-(5-(4-((4-methylpiperazin-1-yl)methyl)piperidin-1-yl)pyridazin-4-yl)pyrazolo[1,5-a]pyrimidine-3-carboxamide] are 10 to 1000 nM and “++ (Compounds with a Cisplatin sensitization value >0.02 μM but <0.2 μM are marked with “++.”)”.
